Laboratory results from patent US12171821B2, “Toxoplasma gondii vaccine” (priority 2018, dated 2024).

Legend:
[1] = system: T. gondii ME49 bradyzoites; test: Merozoite markers GRA11B/BRP1, immunofluorescence, infected cat intestinal monolayers; type: cell-based, Toxoplasma gondii; details: 200 μM fatty acid, 5 days of infection
Protocol: FIGS. 6A-B. Quantification of merozoites in cat tissue culture. A) Cat intestinal organoids were disassociated by trypsin then grown as monolayers on glass slides. Slides were divided into three different groups: not supplemented with fatty acid, supplemented with 200 μM oleic acid or supplemented 200 μM linoleic acid. Monolayers were infected with T. gondii MEM bradyzoites purified from brains of chronic infected mice at a 1:10 MOI. Five days after infection, staining for GRA11B and BRP1 along with DAPI, allowed the percentage of vacuoles positive for GRA11B and BRP1out of the total vacuoles was determined. Total number of parasitophorous vacuoles were counted by positive DAPI staining and confirmed by morphology with DIC. At least 50 parasitophorous vacuoles were counted per replicate. Three biological replicates were counted and on average 35% of the total vacuoles were positive far both GRA11B and BRP1 in the linoleic acid supplemented monolayers. *p-value=0.0126 with N=3 by two-tailed unpaired t test. Straining for both BRP1 and GRA11B was used to ensure that merozoite stages were counted. […] BRP1 is a rhoptry protein that was initially found in bradyzoites; however, it is also expressed in merozoite. […]

asexual tachyzoite stage = details: prior work (Shamseddin et al., 2015); cited from earlier work

CCCCC/C=C\C/C=C\CCCCCCCC(=O)O [linoleic acid]
parasites undergoing sexual development / merozoite stage markers GRA11B and BRP1 (staining) [1]: commonly seen only with linoleic acid supplementation
cytotoxicity for the asexual tachyzoite stage (asexual tachyzoite stage): cytotoxic
